# Reference: patent US11607404B2, “Combinations of RAD51 and PARP inhibitors” (Cyteir Therapeutics, Inc., priority 2019, dated 2023)
# Where two headings read alike, the source gives them in different places.
# Key:
# [1] = test system: Daudi cell line (AID positive); experiment: Primary screening cell killing assay (Cell-Titer Glo, Day 7); type: cell-based; conditions: Homo sapiens, 168 h; Daudi cells (AID positive), cell death on Day 7; read-out: AID+ EC50
# Procedure: (§1) Primary screening was a phenotypic screen that utilized the synthetic lethal interaction between AID and RAD51 to identify compounds that were both potent and on target. AID expressing cells are dependent upon RAD51 for survival; inhibiting RAD51 in AID positive cells results in a cytotoxic effect.
# The first step was to set up a cell killing assay in the Daudi cell line (AID positive). A 96 well u-bottom plate was prepared by writing the experiment number, plate number, date and initials in the top right corner of the plate lid. With a sterile 300 ml reservoir, and 25 ml serological pipette, evaporation buffer media was pipetted into reservoir in 25 ml increments. Using the liquid handler, 150 ul of evaporation buffer media was pipetted from reservoir into rows A and H, and Columns 1 and 12 of the 96 well u-bottom plate. Cell cultures were counted to obtain the density of cells per ml, and the culture viability. The cell density information was used to obtain 1,000,000 cells from culture using a 5 mL serological pipette into an epi tube. The cell density information from the culture was used to calculate the number of cells and volume of media needed for the assay to seed 1250 cells in 130 ul of media per available culture well in the 96 well u-bottom plate. Rows B through F were used for cells (50 wells in total), with row G left for an empty media control. The calculation was overestimated by 10 mL to account for the dead volume in the 300 ml reservoir. Once the media volume was calculated, the appropriate volume of media was pipetted in 25 mL increments into the 250 mL bottle using a 25 mL serological pipette. The 250 ml bottle was capped tightly, and placed into a 37° C. water bath for 2 minutes. While the culture media was warming, 10 mL of fresh media was pipetted from the 500 mL culture media bottle into a sterile 25 mL reservoir. Using the Eppendorf multichannel pipette, 130 ul of media was piptted from the 25 mL reservoir into row G of the 96 well u-bottom plate. Once the 250 mL bottle of media was warmed, the volume of culture needed was pipetted into the bottle, and mixed gently with a 25 mL serological pipette as to not create bubbles, and then the contents of the bottle were pipetted into a new 300 mL reservoir. Using the liquid handler, 130 ul of culture was pipetted from the 300 mL reservoir into rows B through F of the 96 well u-bottom plate. Once the culture was added, the plate was placed into a 37° C. incubator until the compound master plate was prepared for use.
# Two 96 well u-bottom plates were prepared by writing the master plate name in the upper right corner of the plate lid. Labeling one DMSO master and the other Media Master. The compounds of interest were obtained from the laboratory freezer, and placed into a 25 well storage box with a lid, and set the box aside. The compounds were vortexed after thawing but before use. Using an automatic multichannel pipette, 20 ul of 100% DMSO was pipetted into wells B3-B11 through G3-G11 of the DMSO master plate. For each compound on the master plate, 50 ul of the compound were pipetted in the appropriate well of row 2 (reference plate map to determine appropriate well). A serial dilution was prepared beginning by aspirating 20 ul from row 2 and mixing with row 3, repeating until row 11 was reached. Using the liquid handler, 194 ul of Daudi media was dispensed into wells B2-B11 through G2-G11 of the Media master plate. Using the liquid handler, 6 ul from the DMSO master plate was aspirated and dispensed into the media master plate, mixing 100 ul twice.
# Compounds from master plate were then added to the culture plate. The culture plates were removed from the incubator, and set inside the biosafety cabinet. Using a liquid handler, 20 ul from wells B2 to B11 through G2 to G11 of master plate were aspirated, and dispensed into wells B2 to B11 through G2 to G11 of culture plate. This set was continued with each culture plate. […]
# [2] = test system: WI-38 cells (AID negative); experiment: Primary screening cell killing assay repeated in AID negative cells; type: cell-based, Human; conditions: WI-38 cells (AID negative), read-out: AID− EC50
# Procedure: as §1
# Percent cell death and EC50 values were calculated by comparing the cell viability of the compound treated wells to the non-treated wells. Normalized RLU values were obtained by subtracting the media well values from each of the wells in the same column, and then dividing that value by the DMSO treated cells values. The percent kill was then calculated by subtracting the normalized RLU value from 1 and multiplying by 100. The average normalized percent kill value and standard error of the mean was then calculated. The kill values were then inputted into Prism with the corresponding standard errors. In Prism a non-linear regression line was plotted with the data points using a semi-log scale, and the EC50 value was calculated.
# The activity of the claimed compounds was measured in a variety of cell lines with different expression levels of activation induced cytidine deaminase (AICDA). The potency assay was repeated in all of the listed cell lines and the EC50 values recorded.
# [3] = Bi-directional Caco-2 permeability; type: in vitro ADME; conditions: human; for Papp A→B / Papp B→A: Caco-2, 37 C, up to 90 minutes; for Papp A→B: apical to basolateral, read-out: AB Papp (cm/sec × 10^6); for Papp B→A: basolateral to apical, read-out: BA Papp (cm/sec × 10^6); for efflux ratio: Caco-2 efflux ratio, read-out: BA/AB Ratio
# Procedure: Bi-directional Caco-2 permeability was assayed. Caco-2 cells were seeded onto permeable polycarbonate supports and allowed to differentiate for about 3 weeks prior to being used in the assays. The cells were then exposed to the compounds from either the apical or basolateral sides and incubated at 37 C for up to 90 minutes under light agitation. Compound transport was then measured using LC/MS/MS analysis at 30, 60, and 90 minutes.
# [4] = Caco-2, apical to basolateral, read-out: AB Recovery %
# [5] = Caco-2, basolateral to apical, read-out: BA Recovery %
compound,measurement,setting,value
CN1CCC[C@@H]1COC(=O)NC1CCC(c2ncc(-c3ccc(NC(=O)NCc4ccccc4)cc3S(=O)(=O)NC(C)(C)C)s2)CC1 (stereo partly shown) [Compound 11],EC50,[1],≤ 1000 nM
CC(C)OC(=O)NC1CCC(c2ncc(-c3ccc(NC(=O)N[C@H](C)c4ccccc4)cc3S(=O)(=O)NC(C)(C)C)s2)CC1 (stereo partly shown) [Compound 24],EC50,[1],≤ 100 nM
same,EC50,[2]; Homo sapiens,> 1000 nM
CC(C)OC(=O)Nc1ccc(-c2cnc([C@@H]3CC[C@@H](NC(=O)OC(C)C)CN3)s2)c(S(=O)(=O)NC(C)(C)C)c1 (relative stereo) [Compound 63],EC50,[1],≤ 1000 nM
COc1cc(NC(=O)OC(C)C)cnc1-c1ncc(-c2ccc(NC(=O)OCC3CCNCC3)cc2S(=O)(=O)NC(C)(C)C)s1 [Compound 56],EC50,[1],≤ 1000 nM
CC(C)OC(=O)Nc1ccc(-c2sc(C3CCC(NC(=O)OC(C)C)CC3)nc2F)c(S(=O)(=O)NC(C)(C)C)c1 (stereo not shown) [Compound 58],EC50,[1],≤ 1000 nM
CC(C)OC(=O)Nc1ccc(-c2cnc(C3CCC(NC(=O)OC[C@@H]4CCCN4C)CC3)s2)c(S(=O)(=O)NC(C)(C)C)c1 (stereo partly shown) [Compound 9],EC50,[1],≤ 1000 nM
CC(C)OC(=O)N[C@@H]1CCC(c2ncc(-c3ccc(NC(=O)NCc4ccccc4)cc3S(=O)(=O)NC(C)(C)C)s2)OC1 (mixture of isomers) [Compound 59],EC50,[1],≤ 100 nM
same,EC50,[2]; Homo sapiens,> 1000 nM
CC(C)(C)NS(=O)(=O)c1cc(NC(=O)NCc2ccccn2)ccc1-c1cnc(C2CCC(NC(=O)OC(C)(C)C)CC2)s1 (stereo not shown) [Compound 45],EC50,[1],≤ 100 nM
same,recovery at 90 min,[3]; [4],73.6%
same,recovery at 90 min,[3]; [5],84.4%
same,Papp A→B,[3],7.6 ×10⁻⁶ cm/s
same,Papp B→A,[3],10.8 ×10⁻⁶ cm/s
same,efflux ratio,[3],1.4
CC(C)OC(=O)Nc1ccc(-c2cnc(C3CCC(NC(=O)OC4CCCC4)CC3)s2)c(S(=O)(=O)NC(C)(C)C)c1 (stereo not shown) [Compound 7],EC50,[1],≤ 1000 nM
same,recovery at 90 min,[3]; [4],55.9%
same,recovery at 90 min,[3]; [5],92%
same,Papp A→B,[3],1.7 ×10⁻⁶ cm/s
same,Papp B→A,[3],2.1 ×10⁻⁶ cm/s
same,efflux ratio,[3],1.2
CC(C)OC(=O)Nc1ccc(-c2cnc(C34CCC(NC(=O)OC(C)C)(CC3)CC4)s2)c(S(=O)(=O)NC(C)(C)C)c1 [Compound 17],EC50,[1],≤ 1000 nM
CC(C)OC(=O)Nc1ccc(-c2cnc(C3CCC(NC(=O)OC4COC4)CC3)s2)c(S(=O)(=O)NC(C)(C)C)c1 (stereo not shown) [Compound 48],EC50,[1],≤ 1000 nM
CC(C)OC(=O)NC1CCC(c2ncc(-c3ccc(NC(=O)NCc4ccncc4)cc3S(=O)(=O)NC(C)(C)C)s2)CC1 (stereo not shown) [Compound 22],EC50,[1],≤ 1000 nM
same,recovery at 90 min,[3]; [4],83.1%
same,recovery at 90 min,[3]; [5],89%
same,Papp A→B,[3],1.1 ×10⁻⁶ cm/s
same,Papp B→A,[3],21 ×10⁻⁶ cm/s
same,efflux ratio,[3],18.7
CC(C)OC(=O)NC1CCC(c2ncc(-c3ccc(NC(=O)NCc4cccnc4)cc3S(=O)(=O)NC(C)(C)C)s2)CC1 (stereo not shown) [Compound 25],EC50,[1],≤ 100 nM
CC(C)OC(=O)NC1CCC(c2ncc(-c3ccc(NC(=O)O[C@H](C)c4ccccc4)cc3S(=O)(=O)NC(C)(C)C)s2)CC1 (stereo partly shown) [Compound 43],EC50,[1],≤ 1000 nM
same,EC50,[2]; Homo sapiens,> 1000 nM
CC(C)OC(=O)NC1CCC(c2ncc(-c3ccc(NC(=O)O[C@@H](C)c4ccccc4)cc3S(=O)(=O)NC(C)(C)C)s2)CC1 (stereo partly shown) [Compound 41],EC50,[2],> 1000 nM
CC(C)OC(=O)NC1CCC(c2ncc(-c3ccc(NC(=O)NCc4ccc(O)cc4)cc3S(=O)(=O)NC(C)(C)C)s2)CC1 (stereo not shown) [Compound 73],EC50,[1],≤ 100 nM
same,EC50,[2]; Homo sapiens,> 1000 nM
CC(C)OC(=O)N[C@@H]1CC[C@@H](c2ncc(-c3ccc(NC(=O)NCc4ccccc4)cc3S(=O)(=O)NC(C)(C)C)s2)OC1 [Compound 59A],EC50,[1],≤ 1000 nM
CC(C)OC(=O)NC1CCC(c2ncc(-c3ccc(NC(=O)NCc4ccc(F)cc4)cc3S(=O)(=O)NC(C)(C)C)s2)CC1 (stereo not shown) [Compound 23],EC50,[1],≤ 100 nM
CC(C)OC(=O)Nc1ccc(-c2cnc(C3CCC(NC(=O)OC(C)(C)C)CC3)s2)c(S(=O)(=O)NC(C)(C)C)c1 (stereo not shown) [Compound 44],EC50,[1],> 1000 nM
same,recovery at 90 min,[3]; [4],36.2%
same,recovery at 90 min,[3]; [5],69.4%
same,Papp A→B,[3],3.2 ×10⁻⁶ cm/s
same,Papp B→A,[3],4.2 ×10⁻⁶ cm/s
same,efflux ratio,[3],1.3
CN1CCC[C@H]1COC(=O)N[C@H]1CC[C@H](c2ncc(-c3ccc(NC(=O)NCc4ccccc4)cc3S(=O)(=O)NC(C)(C)C)s2)CC1 [Compound 12],EC50,[1],≤ 1000 nM
CC(C)NC(=O)OC1CCC(c2ncc(-c3ccc(NC(=O)NCc4ccccc4)cc3S(=O)(=O)NC(C)(C)C)s2)CC1 (stereo not shown) [Compound 21],EC50,[1],≤ 100 nM
same,recovery at 90 min,[3]; [4],58.6%
same,recovery at 90 min,[3]; [5],78.3%
CC(C)NC(=O)OC1CCC(c2ncc(-c3ccc(NC(=O)OC(C)C)cc3S(=O)(=O)NC(C)(C)C)s2)CC1 (stereo not shown) [Compound 20],EC50,[1],> 1000 nM
same,recovery at 90 min,[3]; [4],44.8%
same,recovery at 90 min,[3]; [5],96.6%
same,Papp A→B,[3],9.4 ×10⁻⁶ cm/s
same,Papp B→A,[3],10.4 ×10⁻⁶ cm/s
same,efflux ratio,[3],1.1
CC(C)OC(=O)NC1CCC(c2ncc(-c3ccc(NC(=O)OCC4CCNCC4)cc3S(=O)(=O)NC(C)(C)C)s2)CC1 (stereo not shown) [Compound 33],EC50,[1],> 1000 nM
CC(C)OC(=O)NC1CCC(c2ncc(-c3ccc(NC(=O)NCc4ccccc4F)cc3S(=O)(=O)NC(C)(C)C)s2)CC1 (stereo not shown) [Compound 28],EC50,[1],≤ 100 nM
same,recovery at 90 min,[3]; [4],66.9%
same,recovery at 90 min,[3]; [5],81%
CC(C)OC(=O)Nc1ccc(-c2cnc([C@H]3CC[C@H](NC(=O)OC(C)C)CO3)s2)c(S(=O)(=O)NC(C)(C)C)c1 [Compound 60B],EC50,[1],≤ 1000 nM
C=S(=O)(NC(C)(C)C)c1cc(NC(=O)NCc2ccccc2)ccc1-c1cnc(N2CCC(NC(=O)OC(C)C)CC2)s1 (stereo not shown) [Compound 68],EC50,[1],≤ 1000 nM
CC(C)OC(=O)NC1CCC(c2ncc(-c3ccc(NC(=O)OC[C@H]4CCCN4)cc3S(=O)(=O)NC(C)(C)C)s2)CC1 (stereo partly shown) [Compound 36],EC50,[1],≤ 1000 nM
CC(C)OC(=O)NC1CCC(c2ncc(-c3ccc(NC(=O)OC[C@H]4CCCN4C)cc3S(=O)(=O)NC(C)(C)C)s2)CC1 (stereo partly shown) [Compound 34],EC50,[1],≤ 1000 nM
same,recovery at 90 min,[3]; [4],98.2%
same,recovery at 90 min,[3]; [5],96.8%
CC(C)OC(=O)Nc1ccc(-c2cnc(C3CC(NC(=O)OC(C)C)C3)s2)c(S(=O)(=O)NC(C)(C)C)c1 (stereo not shown) [Compound 65],EC50,[1],≤ 1000 nM
CC(C)OC(=O)NC1CCC(c2ncc(-c3ccc(NC(=O)OC[C@@H]4CCCN4C)cc3S(=O)(=O)NC(C)(C)C)s2)CC1 (stereo partly shown) [Compound 35],EC50,[1],≤ 1000 nM
same,recovery at 90 min,[3]; [4],98.8%
same,recovery at 90 min,[3]; [5],108%
CC(C)OC(=O)Nc1ccc(-c2cnc(C3CC[C@@H](NC(=O)OC(C)C)CO3)s2)c(S(=O)(=O)NC(C)(C)C)c1 (mixture of isomers) [Compound 60],EC50,[1],≤ 1000 nM
CC(C)OC(=O)N[C@H]1CC[C@@H](c2ncc(-c3ccc(NC(=O)NCc4ccccc4)cc3S(=O)(=O)NC(C)(C)C)s2)CC1 [Compound 66B],EC50,[1],≤ 1000 nM
CC(C)OC(=O)NC1CCC(c2ncc(-c3ccc(NC(=O)OC[C@@H]4CCCN4)cc3S(=O)(=O)NC(C)(C)C)s2)CC1 (stereo partly shown) [Compound 37],EC50,[1],≤ 1000 nM
